Experimental data: patent EP0420914B1, “COSMETIC AND SKIN TREATMENT COMPOSITIONS” (PROCYTE CORPORATION, priority 1988, dated 1994)

Legend:
skin = assay: Topical ointment on human skin, single-subject case reports; format: in vivo; conditions: person
Description: A person had skin covered by a sprinkled pattern of fine reddish spots of microhemorrhages beneath an irritated skin surface.
A person had skin covered with a scaly eczema-like surface.
A person with hair loss and numerous pigmented spots ("aging spots") was treated for 14 days on the top of their head with an ointment (consisting of 94% Unibase and 6% dimethysulfoxide) containing 4 milligrams of GHL-Cu octyl per gram.
A person had irritated skin with numerous pimples.

subcutaneous fat layer = assay: Formation of the subcutaneous fat layer after a single injection in mice (histology); format: in vivo; conditions: for subcutaneous fat layer at the area of injection: histology of the injected area
Description: A single dose of 50 micrograms of glycyl-L-histidyl-L-lysine n-octyl ester:Cu(II) was infiltrated under the skin in eight mice.
In another series of experiments, mice were injected once with glycyl-L-histidyl-L-lysine octyl ester:copper(II) at a dose of 500 micrograms per mouse.
This increase in subcutaneous fat is shown by taking a biopsy sample at day 21 through the area and sectioning for histology slides. […] The injected area is on the right with the adjacent uninjected area on the left of the photograph.
A group of ten mice were injected once with glycyl-L-histidyl-L-lysine decyl ester:copper(II) at a dose of 500 micrograms per mouse. Microscopic examination provided evidence of increased fat cell layer in the area surrounding the injection site.
A group of ten mice were injected once with glycyl-L-histidyl-L-lysine palmityl ester:copper(II) at a dose of 500 micrograms per mouse. Histological sections through the area of injection were similar to those described in Example VI.

[1] = system: dermis, epidermis and subcutis; assay: Histological thickness of dermis, epidermis and subcutis in mice after topical creams; format: in vivo, Swiss-Webster female mice; conditions: creams on days 0, 1, 3, 4 and 5, placebo had returned to naive control level
Description: Skin from 31 Swiss-Webster female mice (average age - 18 months) was evaluated histologically for evidence of changes in skin architecture following several applications of placebo- and peptide-containing cream formulations. Measurements were made of dermal, epidermal and subcutis thickness using an eyepiece micrometer at 100X power.
The mice had hair removed by a close clipping, and were treated on days 0, 1, 3, 4 and 5 with either glycyl-L-histidyl-L-lysine:copper(II), or representative derivatives glycyl-(3-methyl)-L-histidyl-L-lysine: copper(II) and glycyl-L-histidyl-L-lysyl-L-valyl-L-phenylalanyl-L-valine: copper(II), or a placebo cream (n = 5/group). Biopsies were performed on individual animals from the groups on days 6, 10, 12 and 14. In addition, eleven naive mice were biopsied on day 0.

pig skin = assay: Collagen content and angiogenic activity of pig skin biopsies after topical cream; format: in vivo
Description: In a typical experiment, a young pig was treated topically with a cream containing glycyl-(3-methyl)-L-histidyl-L-lysine:copper(II) or a placebo cream once a day for 12 days. Punch biopsies (6 mm dia.) were taken on day 0 and day 12. The biopsies were analyzed for total wet weight, alkaline phosphatase, total protein, and hydroxyproline content. Alkaline phosphatase is an enzyme marker for capillary endothelial cells and is an indicator of new angiogenesis. The hydroxyproline is a component of collagen, and increased hydroxyproline content indicates increased collagen content. The punch biopsies were prepared for biochemical analysis, basically by the method of Counts et al. (D. Counts, P. Knighten and G. Hegreberg, J. Invest. Derm. 69:521-26, 1977).
In a first experiment, an increase in alkaline phosphatase activity and hydroxyproline content was detected on day 12 in the biopsies taken from skin treated with glycyl-(3-methyl)-L-histidyl-L-lysine:copper(II) relative to the placebo-treated area.
The results obtained in a second experiment are graphically illustrated in Figure 4. In this experiment, biopsies were taken from the pig on days 0, 10 and 13 and analyzed for alkaline phosphatase activity.

human epidermis = assay: Epidermal cell turnover rate by clearance of dansyl chloride; format: in vivo; conditions: seven female subjects; daily topical cream, upper inner arm; compared with the corresponding untreated site
Description: The rate of cell turnover is determined by the number of days for clearance of dansyl chloride from stained stratum. Seven female subjects were used in the study, with an average age of 50.4 (± 3.8) years. Each subject was treated with 3% dansyl chloride in petrolatum on four sites on the upper inner arms. One site on each arm served as an untreated control and the other site as the treated site. Sites were randomized by computer as to left or right and as to proximal or distal areas of the upper arm. Twenty-four hours after occlusion, the sites were uncovered and photographed under ultraviolet light for fluorescence of the dansyl chloride. This photograph was designated as day 1. Photographs were made over the next four weeks until all subjects had completed the study, as determined by the final disappearance of the dansyl dye. The sites were then treated daily with a topical cream containing a representative composition, glycyl-(3-methyl)-L-histidyl-L-lysine:copper(II) or a control cream. The number of days for the total disappearance of the dansyl dye from the cream-treated sites was compared with the corresponding untreated site.

dermis = assay: Ultrasound evaluation of dermal density after topical cream on the forearm; format: in vivo, human; conditions: 10 women; cream twice daily for three weeks, volar forearm; score 0 no change to 3 marked change; p = 0.029 versus placebo cream
Description: The effect of a representative composition, glycyl-(-3-methyl-L-histidyl-L-lysine:copper(II)(active agent), on the epidermis and dermis was evaluated by ultrasound. Ultrasound technique uses high-frequency sound, at 20 megahertz, to produce an echo signal of the skin. This signal is processed to produce a diagrammatic representation of the skin that is related to the structures of the skin by the strength of the reflected signal.
The topical cream containing glycyl-(3-methyl)-L-histidyl-L-lysine:copper(II) or a control cream was applied twice daily for three weeks to the volar surface of the forearms of 10 female subjects with an average age of 31.7 years, using both the right and left sides in a random fashion for each cream. Subjects were evaluated by ultrasound scans at days 1, 7, 14 and 21.
The dermal density after treatment as measured by ultrasound was evaluated on a scoring system whereby no change = 0, a slight change = 1, a moderate change = 2, and a marked change = 3. In 10 women treated with the cream-plus-active-agent, the average density score was 1.7, while the average score of the placebo-cream-only was 0.7. This difference was significant at a probability of p = 0.029.

[2] = injected once, 500 micrograms per mouse
[3] = topical cream once a day for 12 days, 6 mm punch biopsy, day 12

glycyl-L-histidyl-L-lysine: copper(II) [GHL-Cu]
reddish spots of microhemorrhages (skin; once daily for 9 days, 4 mg GHL-Cu per gram): complete clearing of the reddish spots

glycyl-L-histidyl-L-lysine n-octyl ester:copper(II)
number and size of the fat cells (subcutaneous fat layer; injected once, 500 micrograms per mouse, biopsy at day 21): increase in both the number and size of the fat cells
increase in the subcutaneous fat layer in the skin near the injection site (fold) (subcutaneous fat layer; injected once, 500 micrograms per mouse, biopsy at day 21, versus adjacent uninjected area): approximately threefold
subcutaneous fat layer at the area of injection (subcutaneous fat layer; [2]): significant increase in the thickness of the subcutaneous fat layer
amounts of subcutaneous fat (subcutaneous fat layer; single dose of 50 micrograms infiltrated under the skin, eight mice): Increased amounts of subcutaneous fat were observed
softness and thickness of the skin covering the head (skin; treated 14 days on top of head): noticeably softer to the touch and possessed a greater thickness
number of aging spots (skin; treated 14 days on top of head, 4 milligrams per gram in 94% Unibase and 6% dimethysulfoxide, thirty days after start): marked reduction in the number of aging spots
size of the remaining aging spots (skin; treated 14 days, thirty days after start): reduction in the size of the remaining spots

glycyl-L-histidyl-L-lysyl-L-valyl-L-phenylalanyl-L-valine: copper(II)
epidermal thickness by day 14 [1]: maintained an increased epidermal thickness

glycyl-L-histidyl-L-lysine decyl ester:copper(II)
subcutaneous fat layer at the area of injection (subcutaneous fat layer; [2]): marked increase in the subcutaneous fat layer

glycyl-L-histidyl-L-lysine palmityl ester:copper(II)
subcutaneous fat layer at the area of injection (subcutaneous fat layer; [2]): increase in the subcutaneous fat layer

glycyl-(3-methyl)-L-histidyl-L-lysine:copper(II)
alkaline phosphatase activity, second experiment (Figure 4) (pig skin; biopsies on days 0, 10 and 13, relative to placebo cream-treated areas): increased alkaline phosphatase
Angiogenic Activity (as alkaline phosphatase) (pig skin; [3]): 0.013 ± 0.001 inc A405/min/mg
Collagen Content (as hydroxyproline) (pig skin; [3]): 5.8 ± 0.2 µg/biopsy
increase of average skin turnover rate (human epidermis): 30.0%
epidermal thickness by day 14 [1]: maintained an increased epidermal thickness
average density score (dermal density by ultrasound) (dermis): 1.7
